From US8367838B2, “Amines or amino alcohols as GLYT1 inhibitors” (Hoffmann-La Roche Inc., priority 2009, dated 2013)
Where a name gives a salt, the structure may show the parent alone.

Biological target: T1, mGlyT-1b (Mus musculus, UniProt P28571)
T1 construct: host or cells: Flp-in-CHO
T1 sequence (P28571 1-651 isoform P28571-2): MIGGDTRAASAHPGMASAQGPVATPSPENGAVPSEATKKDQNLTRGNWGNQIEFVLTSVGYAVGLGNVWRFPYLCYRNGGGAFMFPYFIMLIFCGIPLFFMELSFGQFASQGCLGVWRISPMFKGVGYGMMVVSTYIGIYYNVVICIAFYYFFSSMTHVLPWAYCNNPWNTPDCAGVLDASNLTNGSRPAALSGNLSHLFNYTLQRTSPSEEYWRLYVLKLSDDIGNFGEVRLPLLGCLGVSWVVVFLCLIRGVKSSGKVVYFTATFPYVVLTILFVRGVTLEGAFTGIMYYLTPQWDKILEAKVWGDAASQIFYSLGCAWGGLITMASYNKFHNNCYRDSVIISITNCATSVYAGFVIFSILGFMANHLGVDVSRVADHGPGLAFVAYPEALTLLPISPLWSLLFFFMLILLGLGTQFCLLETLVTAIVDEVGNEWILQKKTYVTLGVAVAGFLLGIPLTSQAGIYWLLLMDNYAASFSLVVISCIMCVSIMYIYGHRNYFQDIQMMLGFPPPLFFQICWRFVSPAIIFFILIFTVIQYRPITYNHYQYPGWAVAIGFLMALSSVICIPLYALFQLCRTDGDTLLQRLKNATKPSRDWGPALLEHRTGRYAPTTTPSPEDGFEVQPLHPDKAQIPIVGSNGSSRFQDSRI
Test: Glycine uptake inhibition assay (mGlyT-1b), [3H]-glycine uptake in transfected Flp-in-CHO cells
Format: cell-based
Conditions: Flp-in-CHO cells transfected with mGlyT-1b cDNA; [3H]-glycine 60 nM and 25 μM non-radioactive glycine; 20 min preincubation at 22° C.; read-out: IC50 (μM) at GlyT-1; Ic50 (hglyt1b)
Experimental: Nutrient mixture F-12 (Gibco Life-technologies), fetal bovine serum (FBS) 5%, (Gibco life technologies), Penicillin/Streptomycin 1% (Gibco life technologies), Hygromycin 0.6 mg/ml (Gibco life technologies), Glutamine 1 mM Gibco life technologies).
150 mM NaCl, 10 mM Hepes-Tris, pH 7.4, 1 mM CaCl2, 2.5 mM KCl, 2.5 mM MgSO4, 10 mM (+) D-glucose. Flp-in™-CHO (Invitrogen Cat n° R758-07) cells stably transfected with mGlyT1b cDNA.
Glycine Uptake Inhibition Assay (mGlyT-1b)
On day 1 mammalian cells, (Flp-in™-CHO), transfected with mGlyT-1b cDNA, were plated at the density of 40,000 cells/well in complete F-12 medium, without hygromycin in 96-well culture plates. On day 2, the medium was aspirated and the cells were washed twice with uptake buffer (UB). The cells were then incubated for 20 min at 22° C. with either (i) no potential competitor, (ii) 10 mM non-radioactive glycine, (iii) a concentration of a potential inhibitor. A range of concentrations of the potential inhibitor was used to generate data for calculating the concentration of inhibitor resulting in 50% of the effect (e.g. IC50, the concentration of the competitor inhibiting glycine uptake of 50%). A solution was then immediately added containing [^3H]-glycine 60 nM (11-16 Ci/mmol) and 25 μM non-radioactive glycine. The plates were incubated with gentle shaking and the reaction was stopped by aspiration of the mixture and washing (three times) with ice-cold UB. The cells were lysed with scintillation liquid, shaken 3 hours and the radioactivity in the cells was counted using a scintillation counter.

Structure (SMILES) | IC50 [µM]
N[C@@H](c1ccc(Cl)c(F)c1)[C@H](O)c1ccc(-c2cncc(F)c2)cc1 (racemic) [Example 85, rac-erythro-2-Amino-2-(4-chloro-3-fluoro-phenyl)-1-[4-(5-fluoro-pyridin-3-yl)-phenyl]-ethanol] | 0.095
N[C@@H](c1ccc(Cl)c(Cl)c1)[C@H](O)c1cc(F)c(OC2CCOCC2)c(F)c1 (racemic) [Example 20, rac-erythro-[2-Amino-2-(3,4-dichloro-phenyl)-1-[3,5-difluoro-4-(tetrahydro-pyran-4-yloxy)-phenyl]-ethanol hydrochloride] | 0.09
N[C@@H](c1ccc(Cl)c(Cl)c1)[C@H](O)c1ccc(OC(F)(F)C(F)F)cc1 (racemic) [Example 38, rac-erythro-[2-Amino-2-(3,4-dichlorophenyl)-1-[4-(1,1,2,2-tetrafluoro-ethoxy)-phenyl]-ethanol] | 0.176
N[C@@H](c1ccc(Cl)c(Cl)c1)[C@H](O)c1ccc(OCC(F)(F)F)cc1 (racemic) [Example 47, rac-erythro-[2-Amino-2-(3,4-dichloro-phenyl)-1-[4-(2,2,2-trifluoro-ethoxy)-phenyl]-ethanol] | 0.266
N[C@@H](c1ccc(Cl)cc1)[C@H](O)c1ccc(-c2cccnc2)cc1 (racemic) [Example 63, rac-erythro-2-Amino-2-(4-chloro-phenyl)-1-(4-pyridin-3-yl-phenyl)-ethanol hydrochloride] | 0.09
CC(=O)Nc1cccc(-c2ccc([C@@H](O)[C@@H](N)c3ccc(Cl)cc3)cc2)c1 (racemic) [Example 67, rac-erythro-N-[4′-[2-Amino-2-(4-chloro-phenyl)-1-hydroxy-ethyl]-biphenyl-3-yl]-acetamide] | 0.173
N[C@@H](c1ccc(Cl)c(Cl)c1)[C@H](O)c1ccc(OC2CCOCC2)c(F)c1 (racemic) [Example 18, rac-erythro-[2-Amino-2-(3,4-dichloro-phenyl)-1-[3-fluoro-4-(tetrahydro-pyran-4-yloxy)-phenyl]-ethanol hydrochloride] | 0.049
COc1cccc(-c2cnc([C@@H](O)[C@@H](N)c3ccc(Cl)c(Cl)c3)c(F)c2)c1 (racemic) [Example 13, rac-erythro-[2-Amino-2-(3,4-dichloro-phenyl)-1-[3-fluoro-5-(3-methoxy-phenyl)-pyridin-2-yl]-ethanoldihydrochloride] | 0.113
CC(C)(C)c1ccc([C@@H](O)[C@@H](N)c2ccc(Cl)c(Cl)c2)cc1 (racemic) [Example 37, rac-erythro-[2-Amino-1-(4-tert-butyl-phenyl)-2-(3,4-dichloro-phenyl)-ethanol trifluoroacetate] | 0.876
N[C@@H](c1ccc(Cl)c(F)c1)[C@H](O)c1ccc(-c2cccnc2)cc1 (racemic) [Example 84] | 0.033
N[C@@H](c1ccc(Cl)cc1)[C@H](O)c1ccc(OC(CF)CF)cc1 (racemic) [Example 58, rac-erythro-2-Amino-2-(4-chloro-phenyl)-1-[4-(2-fluoro-1-fluoromethyl-ethoxy)-phenyl]-ethanol] | 0.478
CCC(C)Oc1ccc([C@@H](O)[C@@H](N)c2ccc(Cl)c(Cl)c2)cc1 (mixture of isomers) [Example 51, rac-erythro-2-Amino-1-(4-sec-butoxy-phenyl)-2-(3,4-dichloro-phenyl)-ethanol] | 0.72
CS(=O)(=O)c1cncc(-c2ccc([C@@H](O)[C@@H](N)c3ccc(Cl)c(Cl)c3)cc2)c1 (racemic) [Example 82, rac-erythro-2-Amino-2-(3,4-dichloro-phenyl)-1-[4-(5-methanesulfonyl-pyridin-3-yl)-phenyl]-ethanol] | 0.047
CC(CO)(CCl)COc1ccc([C@@H](O)[C@@H](N)c2ccc(Cl)c(Cl)c2)cc1 (mixture of isomers) [Example 43, rac-erythro-[2-Amino-2-(3,4-dichloro-phenyl)-1-hydroxy-ethyl]-phenoxy]-2-chloromethyl-2-methyl-propan-1-ol hydrochloride] | 0.053
